In BindingDB's records for doi:10.1016/j.bmcl.2013.05.020 (Vanderbilt University Medical Center, 2013):

Molecular target: Metabotropic glutamate receptor 1 (Homo sapiens, UniProt Q13255)
Assay: Negative allosteric modulation of human mGluR1 expressed in HEK293A cells assessed as inhibition of glutamate-induced calcium mobilization

Metabotropic glutamate receptor 1, sequence (Q13255 whole entry): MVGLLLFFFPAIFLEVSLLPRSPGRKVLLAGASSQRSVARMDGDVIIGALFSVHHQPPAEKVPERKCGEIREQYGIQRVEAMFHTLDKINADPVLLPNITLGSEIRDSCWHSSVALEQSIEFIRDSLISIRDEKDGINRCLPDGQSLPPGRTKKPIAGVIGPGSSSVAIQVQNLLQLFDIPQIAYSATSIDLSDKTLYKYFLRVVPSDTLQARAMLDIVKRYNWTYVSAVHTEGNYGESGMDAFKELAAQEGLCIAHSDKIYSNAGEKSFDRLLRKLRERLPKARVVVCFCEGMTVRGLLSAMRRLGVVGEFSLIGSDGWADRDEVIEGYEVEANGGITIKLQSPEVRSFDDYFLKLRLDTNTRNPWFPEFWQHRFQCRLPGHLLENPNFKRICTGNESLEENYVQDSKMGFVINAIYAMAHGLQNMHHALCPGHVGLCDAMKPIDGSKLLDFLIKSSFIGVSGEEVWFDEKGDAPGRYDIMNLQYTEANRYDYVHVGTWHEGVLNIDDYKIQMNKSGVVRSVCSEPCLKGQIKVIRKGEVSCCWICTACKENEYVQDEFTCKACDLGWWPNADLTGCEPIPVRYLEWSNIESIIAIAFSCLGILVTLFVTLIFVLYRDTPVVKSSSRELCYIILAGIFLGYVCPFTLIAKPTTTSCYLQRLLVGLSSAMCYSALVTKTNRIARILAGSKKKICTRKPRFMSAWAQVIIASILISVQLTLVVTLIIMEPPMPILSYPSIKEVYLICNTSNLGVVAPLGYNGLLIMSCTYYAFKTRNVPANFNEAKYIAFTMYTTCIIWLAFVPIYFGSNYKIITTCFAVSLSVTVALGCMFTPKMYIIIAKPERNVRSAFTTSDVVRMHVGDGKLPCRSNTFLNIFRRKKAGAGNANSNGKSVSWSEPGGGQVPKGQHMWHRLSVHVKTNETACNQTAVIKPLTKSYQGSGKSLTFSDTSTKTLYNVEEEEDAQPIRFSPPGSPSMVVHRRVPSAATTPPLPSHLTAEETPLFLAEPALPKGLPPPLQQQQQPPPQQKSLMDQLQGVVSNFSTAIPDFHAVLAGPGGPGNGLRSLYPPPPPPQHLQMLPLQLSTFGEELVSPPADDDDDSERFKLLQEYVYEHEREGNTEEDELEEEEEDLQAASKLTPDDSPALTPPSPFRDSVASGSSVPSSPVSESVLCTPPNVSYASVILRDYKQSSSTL

SMILES | IC50 [µM]
C[C@@H]1CN(c2ccccn2)CCN1C(=O)C1CC1 | > 31.6
C[C@@H]1CN(C(=O)C(C)(C)C)CCN1c1ccccn1 | > 31.6
C[C@@H]1CN(C(=O)C23C4C5C6C4C2C6C53)CCN1c1ccccn1 (stereo partly drawn) | > 31.6
C[C@@H]1CN(C(=O)C2CCCCC2)CCN1c1ccccn1 | > 31.6
C[C@@H]1CN(C(=O)[C@H]2CC[C@H](C)CC2)CCN1c1ccccn1 | > 31.6
C[C@@H]1CN(c2ccccn2)CCN1C(=O)C(C)(C)C | > 31.6
C[C@@H]1CN(C(=O)C2CC2)CCN1c1ccccn1 | > 31.6
C[C@@H]1CN(C(=O)C23CC4CC(CC(C4)C2)C3)CCN1c1ccncc1 | > 31.6
